Laboratory results: patent US8981068B2, “Compositions of standardized mixtures for determining an amount of a nucleic acid” (Gene Express, Inc., priority 2005, dated 2015)

Legend:
[1] = system: cytochrome p450 (CYP) IAI gene; experiment: MC RT-PCR with Celi competitive templates: induction of CYPIAI gene expression in β-napthoflavone-exposed BEP2D cells; format: cell-based, human; conditions: β-napthoflavone 10 μM, varying times, control 0.1% DMSO, cDNA loading matched by GAPDH native/competitive template bands
Method: (§1) In a second set of experiments, multiplex competitive reverse transcriptase polymerase chain reaction (MC RT-PCR) with competitive templates were prepared by the Celi method to evaluate the cytochrome p450 (CYP) IAI gene in β-napthoflavone-exposed BEP2D cells. The induction of CYPIAI gene expression was evaluated using both MC RT-PCR with Celi competitive templates, and Northern analysis. Competitive templates were prepared for both the CYPIAI and GAPDH genes. The primers used to prepare the competitive template for GAPDH were: […]
The PCR amplification conditions were the same as described for experiments using the competitive templates prepared for GAPDH and GSHPx by the Higuchi method except the annealing temperature was 55 degrees centigrade and the amplification was carried out for 38 cycles.
Because the native and competitive templates separate without prior restriction endonuclease digestion, samples were taken directly from the PCR reaction tube and applied to ethidium bromide stained 3% Nusieve, 1% LE agarose gels. It was then possible to quantify the products by taking a negative photograph of the gel using Polaroid 665 positive/negative instant film, subjecting the negative photograph to densitometry. […]

[2] = system: cytochrome p450 IA1 (CYPIA1); experiment: Northern analysis of CYPIAI gene expression in β-napthoflavone-exposed BEP2D cells; format: cell-based, human; conditions: β-napthoflavone 10 μM, varying times, control 0.1% DMSO, 32P-labeled CYPIAI cDNA probe
Method: as §1
RNA from BEP2D cells incubated for varying times with β-napthoflavone (10 μM) was either electrophoresed on a 1% LE formaldehyde denaturing gel for Northern analysis or MC RT-PCR amplified, as described above. For Northern analysis, following transfer of the RNA to GeneScreen, the filters were hybridized with ^32P-labeled CYPIAI cDNA.

## O=c1cc(-c2ccccc2)oc2ccc3ccccc3c12 [β-napthoflavone]
[1]
  band representing the native CYPIAI gene, exposed cells compared to control cells: much more strongly represented
[2]
  CYPIAI gene expression by Northern analysis: increase
